Test results reported in ChEMBL document CHEMBL1159031, “Cytotoxic quassinoids from Cedronia granatensis” (1992).

Experiments:
Assay type in all cases: functional
CCRF-CEM = experiment: Cytotoxicity against human CCRF-CEM cells; settings: read-out: Log10LC50 (converted)
HL-60(TB) = experiment: Cytotoxicity against human HL-60(TB) cells; settings: read-out: Log10LC50 (converted)
K562 = experiment: Cytotoxicity against human K562 cells; settings: read-out: Log10LC50 (converted)
MOLT-4 = experiment: Cytotoxicity against human MOLT4 cells; settings: read-out: Log10LC50 (converted)
RPMI-8226 = experiment: Cytotoxicity against human RPMI8226 cells; settings: read-out: Log10LC50 (converted)
SR = experiment: Cytotoxicity against human SR cells; settings: read-out: Log10LC50 (converted)
A549 = experiment: Cytotoxicity against human A549 cells; settings: read-out: Log10LC50 (converted)
EKVX = experiment: Cytotoxicity against human EKVX cells; settings: read-out: Log10LC50 (converted)
HOP-18 = experiment: Cytotoxicity against human HOP18 cells; settings: read-out: Log10LC50 (converted)
HOP-62 = experiment: Cytotoxicity against human HOP62 cells; settings: read-out: Log10LC50 (converted)
HOP-92 = experiment: Cytotoxicity against human HOP92 cells; settings: read-out: Log10LC50 (converted)
NCI-H226 = experiment: Cytotoxicity against human NCI-H226 cells; settings: read-out: Log10LC50 (converted)
NCI-H23 = experiment: Cytotoxicity against human NCI-H23 cells; settings: read-out: Log10LC50 (converted)
[1] = Cytotoxicity against human NCI-H322 cells; settings: read-out: Log10LC50 (converted)
NCI-H460 = experiment: Cytotoxicity against human NCI-H460 cells; settings: read-out: Log10LC50 (converted)
NCI-H522 = experiment: Cytotoxicity against human NCI-H522 cells; settings: read-out: Log10LC50 (converted)
[2] = Cytotoxicity against human LXFL 529L cells; settings: read-out: Log10LC50 (converted)
DMS-114 = experiment: Cytotoxicity against human DMS114 cells; settings: read-out: Log10LC50 (converted)
DMS-273 = experiment: Cytotoxicity against human DMS273 cells; settings: read-out: Log10LC50 (converted)
COLO 205 = experiment: Cytotoxicity against human COLO205 cells; settings: read-out: Log10LC50 (converted)
HCC 2998 = experiment: Cytotoxicity against human HCC2998 cells; settings: read-out: Log10LC50 (converted)
HCT-116 = experiment: Cytotoxicity against human HCT116 cells; settings: read-out: Log10LC50 (converted)
HCT-15 = experiment: Cytotoxicity against human HCT15 cells; settings: read-out: Log10LC50 (converted)
HT-29 = experiment: Cytotoxicity against human HT-29 cells; settings: read-out: Log10LC50 (converted)
KM12 = experiment: Cytotoxicity against human KM12 cells; settings: read-out: Log10LC50 (converted)
KM-20L2 = experiment: Cytotoxicity against human KM20L2 cells; settings: read-out: Log10LC50 (converted)
SW-620 = experiment: Cytotoxicity against human SW620 cells; settings: read-out: Log10LC50 (converted)
SF-268 = experiment: Cytotoxicity against human SF268 cells; settings: read-out: Log10LC50 (converted)
SF-295 = experiment: Cytotoxicity against human SF295 cells; settings: read-out: Log10LC50 (converted)
SF-539 = experiment: Cytotoxicity against human SF539 cells; settings: read-out: Log10LC50 (converted)
SNB-19 = experiment: Cytotoxicity against human SNB19 cells; settings: read-out: Log10LC50 (converted)
SNB-75 = experiment: Cytotoxicity against human SNB75 cells; settings: read-out: Log10LC50 (converted)
SNB-78 = experiment: Cytotoxicity against human SNB78 cells; settings: read-out: Log10LC50 (converted)
U-251 = experiment: Cytotoxicity against human U251 cells; settings: read-out: Log10LC50 (converted)
XF498 = experiment: Cytotoxicity against human XF498 cells; settings: read-out: Log10LC50 (converted)
LOX IMVI = experiment: Cytotoxicity against human LOXIMVI cells; settings: read-out: Log10LC50 (converted)
Malme-3M = experiment: Cytotoxicity against human MALME-3M cells; settings: read-out: Log10LC50 (converted)
M14 = experiment: Cytotoxicity against human M14 cells; settings: read-out: Log10LC50 (converted)
SK-MEL-2 = experiment: Cytotoxicity against human SK-MEL-2 cells; settings: read-out: Log10LC50 (converted)
SK-MEL-28 = experiment: Cytotoxicity against human SK-MEL-28 cells; settings: read-out: Log10LC50 (converted)
SK-MEL-5 = experiment: Cytotoxicity against human SK-MEL-5 cells; settings: read-out: Log10LC50 (converted)
UACC-257 = experiment: Cytotoxicity against human UACC257 cells; settings: read-out: Log10LC50 (converted)
UACC-62 = experiment: Cytotoxicity against human UACC62 cells; settings: read-out: Log10LC50 (converted)
IGROV-1 = experiment: Cytotoxicity against human IGROV1 cells; settings: read-out: Log10LC50 (converted)
OVCAR-3 = experiment: Cytotoxicity against human OVCAR-3 cells; settings: read-out: Log10LC50 (converted)
OVCAR-4 = experiment: Cytotoxicity against human OVCAR4 cells; settings: read-out: Log10LC50 (converted)
OVCAR-5 = experiment: Cytotoxicity against human OVCAR5 cells; settings: read-out: Log10LC50 (converted)
OVCAR-8 = experiment: Cytotoxicity against human OVCAR8 cells; settings: read-out: Log10LC50 (converted)
SK-OV-3 = experiment: Cytotoxicity against human SKOV3 cells; settings: read-out: Log10LC50 (converted)
[3] = Cytotoxicity against human 786-O cells; settings: 786-0, read-out: Log10LC50 (converted)
A498 = experiment: Cytotoxicity against human A498 cells; settings: read-out: Log10LC50 (converted)
ACHN = experiment: Cytotoxicity against human ACHN cells; settings: read-out: Log10LC50 (converted)
CAKI-1 = experiment: Cytotoxicity against human Caki1 cells; settings: read-out: Log10LC50 (converted)
RXF 393 = experiment: Cytotoxicity against human RXF393 cells; settings: read-out: Log10LC50 (converted)
SN12C = experiment: Cytotoxicity against human SN12C cells; settings: read-out: Log10LC50 (converted)
TK-10 = experiment: Cytotoxicity against human TK10 cells; settings: read-out: Log10LC50 (converted)
UO-31 = experiment: Cytotoxicity against human UO31 cells; settings: read-out: Log10LC50 (converted)
DLD-1 = experiment: Cytotoxicity against human DLD1 cells; settings: read-out: Log10LC50 (converted)
M19-MEL = experiment: Cytotoxicity against human M19-MEL cells; settings: read-out: Log10LC50 (converted)
[4] = Cytotoxicity against human RXF631 cells; settings: RXF 631, read-out: Log10LC50 (converted)

## COC(=O)[C@@]12OC[C@]34[C@H]([C@@H](O)[C@@H]1O)[C@@]1(C)[C@H](O)C(=O)C=C(C)[C@@H]1C[C@H]3OC(=O)[C@H](OC(C)=O)[C@@H]24 [ISOBRUCEIN B]
CCRF-CEM
  CC50: 42.7 µM
HL-60(TB)
  CC50: 0.347 µM
K562
  CC50: 11 µM
MOLT-4
  CC50: 42.7 µM
RPMI-8226
  CC50: 42.7 µM
SR
  CC50: 42.7 µM
A549
  CC50: 42.7 µM
EKVX
  CC50: 42.7 µM
HOP-18
  CC50: 42.7 µM
HOP-62
  CC50: 42.7 µM
HOP-92
  CC50: 42.7 µM
NCI-H226
  CC50: 14.1 µM
NCI-H23
  CC50: 3.47 µM
[1]
  CC50: 42.7 µM
NCI-H460
  CC50: 14.1 µM
NCI-H522
  CC50: 6.17 µM
[2]
  CC50: 42.7 µM
DMS-114
  CC50: 1.91 µM
DMS-273
  CC50: 2.69 µM
COLO 205
  CC50: 5.75 µM
HCC 2998
  CC50: 1.58 µM
HCT-116
  CC50: 18.2 µM
HCT-15
  CC50: 33.1 µM
HT-29
  CC50: 42.7 µM
KM12
  CC50: 20.9 µM
KM-20L2
  CC50: 42.7 µM
SW-620
  CC50: 39.8 µM
SF-268
  CC50: 40.7 µM
SF-295
  CC50: 32.4 µM
SF-539
  CC50: 1.29 µM
SNB-19
  CC50: 42.7 µM
SNB-75
  CC50: 14.1 µM
SNB-78
  CC50: 42.7 µM
U-251
  CC50: 42.7 µM
XF498
  CC50: 12 µM
LOX IMVI
  CC50: 8.51 µM
Malme-3M
  CC50: 3.02 µM
M14
  CC50: 2.29 µM
SK-MEL-2
  CC50: 7.08 µM
SK-MEL-28
  CC50: 3.39 µM
SK-MEL-5
  CC50: 2.09 µM
UACC-257
  CC50: 20.9 µM
UACC-62
  CC50: 5.37 µM
IGROV-1
  CC50: 42.7 µM
OVCAR-3
  CC50: 42.7 µM
OVCAR-4
  CC50: 11 µM
OVCAR-5
  CC50: 42.7 µM
OVCAR-8
  CC50: 21.9 µM
SK-OV-3
  CC50: 42.7 µM
[3]
  CC50: 33.1 µM
A498
  CC50: 5.75 µM
ACHN
  CC50: 42.7 µM
CAKI-1
  CC50: 42.7 µM
RXF 393
  CC50: 10 µM
SN12C
  CC50: 42.7 µM
TK-10
  CC50: 42.7 µM
UO-31
  CC50: 42.7 µM
DLD-1
  CC50: 42.7 µM
M19-MEL
  CC50: 4.79 µM
[4]
  CC50: 42.7 µM

## COC(=O)[C@]12OC[C@]34[C@H]([C@@H](O)[C@@H]1O)[C@@]1(C)C=C5OC(=O)C=C5[C@@H](C)[C@@H]1C[C@H]3OC(=O)[C@H](OC(C)=O)[C@@H]24 [SERGEOLIDE]
CCRF-CEM
  CC50: 3.98 µM
HL-60(TB)
  CC50: 0.0575 µM
K562
  CC50: 3.98 µM
MOLT-4
  CC50: 3.89 µM
RPMI-8226
  CC50: 3.98 µM
SR
  CC50: 3.98 µM
A549
  CC50: 3.98 µM
EKVX
  CC50: 0.891 µM
HOP-18
  CC50: 3.98 µM
HOP-62
  CC50: 1.91 µM
HOP-92
  CC50: 3.98 µM
NCI-H226
  CC50: 0.0661 µM
NCI-H23
  CC50: 0.0708 µM
[1]
  CC50: 3.98 µM
NCI-H460
  CC50: 0.457 µM
NCI-H522
  CC50: 0.0158 µM
[2]
  CC50: 0.0676 µM
DMS-114
  CC50: 0.0363 µM
DMS-273
  CC50: 0.11 µM
COLO 205
  CC50: 0.0219 µM
HCC 2998
  CC50: 0.0288 µM
HCT-116
  CC50: 0.129 µM
HCT-15
  CC50: 1.91 µM
HT-29
  CC50: 3.8 µM
KM12
  CC50: 0.437 µM
KM-20L2
  CC50: 3.98 µM
SW-620
  CC50: 3.98 µM
SF-268
  CC50: 2.09 µM
SF-295
  CC50: 0.38 µM
SF-539
  CC50: 0.0257 µM
SNB-19
  CC50: 3.98 µM
SNB-75
  CC50: 0.0389 µM
SNB-78
  CC50: 2.51 µM
U-251
  CC50: 3.98 µM
XF498
  CC50: 0.0589 µM
LOX IMVI
  CC50: 0.288 µM
Malme-3M
  CC50: 0.012 µM
M14
  CC50: 0.0209 µM
SK-MEL-2
  CC50: 0.0269 µM
SK-MEL-28
  CC50: 0.12 µM
SK-MEL-5
  CC50: 0.00661 µM
UACC-257
  CC50: 0.0589 µM
UACC-62
  CC50: 0.0324 µM
IGROV-1
  CC50: 3.98 µM
OVCAR-3
  CC50: 3.98 µM
OVCAR-4
  CC50: 0.0447 µM
OVCAR-5
  CC50: 3.31 µM
OVCAR-8
  CC50: 0.776 µM
SK-OV-3
  CC50: 3.98 µM
[3]
  CC50: 0.407 µM
A498
  CC50: 0.0575 µM
ACHN
  CC50: 3.39 µM
CAKI-1
  CC50: 3.98 µM
RXF 393
  CC50: 0.0513 µM
SN12C
  CC50: 3.98 µM
TK-10
  CC50: 3.98 µM
UO-31
  CC50: 2.88 µM
DLD-1
  CC50: 3.24 µM
M19-MEL
  CC50: 0.0199 µM
[4]
  CC50: 3.72 µM
